Experimental data taken from publication PMC8725837, “2-Arylquinolines as novel anticancer agents with dual EGFR/FAK kinase inhibitory activity: synthesis, biological evaluation, and molecular modelling insights” (Journal of Enzyme Inhibition and Medicinal Chemistry, 2021).

Assays:
[1] = tested on: MDMBA-231 breast cancer cell line; assay: MTT antiproliferative assay, MDMBA-231; type: cell-based; conditions: 10 µM, 24 h
Description: (§1) At least, three independent experiments were performed.

[2] = tested on: DLD-1 colorectal cancer cell line; assay: MTT antiproliferative assay, DLD-1; conditions: for GI% DLD1: 10 µM, 24 h, MTT; for IC50: Homo sapiens, DLD-1, 24 h, read-out: IC50 DLD1 (half maximal growth inhibitory concentration)
Description: After the incubation of the tested compounds for 24 h, the percent growth inhibition (GI%) was calculated.
Cells were seeded at 1 × 10^4 cells/well and cultured overnight in a 96-well plate. […] Then, 150 µl DMSO was used to solubilise MTT formazan crystals. Finally, the plates were shaken, and the optical density was determined at 570 nm using ELISA plate reader. At least, three independent experiments were performed. Percentage of growth inhibition was determined as (1-[OD of treated cells/OD of control cells]). […] The IC50 values were calculated using Prism v0.8 software (GraphPad Software Inc., La Jolla, CA).

VEGFR-1 = biological target: T1, VEGFR-1 (Homo sapiens, UniProt P17948); assay: Z`-LYTE kinase profiling, VEGFR-1; type: biochemical
T1 construct: purchased Invitrogen/Life Technologies

EGFR = EGFR (Homo sapiens, UniProt P00533); assay: Z`-LYTE kinase inhibitory assay, EGFR
[3] = tested on: HCT-116 colorectal cancer cell line; assay: MTT antiproliferative assay, HCT-116; conditions: for GI% HCT-116: 10 µM, 24 h, MTT; for IC50: Homo sapiens, HCT-116, 24 h, read-out: IC50 HCT-116 (half maximal growth inhibitory concentration)
BTK = biological target: T2, BTK (Homo sapiens, UniProt Q06187); assay: Z`-LYTE kinase profiling, BTK; type: biochemical
T2 construct: purchased Invitrogen/Life Technologies

HER-2 = biological target: T3, HER-2 (Homo sapiens, UniProt P04626); assay: Z`-LYTE kinase profiling, HER-2; type: biochemical
T3 construct: purchased Invitrogen/Life Technologies

FRK = biological target: T4, FRK (Homo sapiens, UniProt P42685); assay: Z`-LYTE kinase profiling, FRK; type: biochemical
T4 construct: purchased Invitrogen/Life Technologies

[4] = tested on: MCF-7 breast cancer cell line; assay: MTT antiproliferative assay, MCF-7; type: cell-based; conditions: 10 µM, 24 h
Description: as §1

recombinant human TOP1 = biological target: T5, recombinant human TOP1 (Homo sapiens, UniProt P11387); assay: Topoisomerase I-mediated DNA cleavage assay; conditions: tested at 0.1, 1, 10, 100 µM
T5 sequence (P11387 1-765): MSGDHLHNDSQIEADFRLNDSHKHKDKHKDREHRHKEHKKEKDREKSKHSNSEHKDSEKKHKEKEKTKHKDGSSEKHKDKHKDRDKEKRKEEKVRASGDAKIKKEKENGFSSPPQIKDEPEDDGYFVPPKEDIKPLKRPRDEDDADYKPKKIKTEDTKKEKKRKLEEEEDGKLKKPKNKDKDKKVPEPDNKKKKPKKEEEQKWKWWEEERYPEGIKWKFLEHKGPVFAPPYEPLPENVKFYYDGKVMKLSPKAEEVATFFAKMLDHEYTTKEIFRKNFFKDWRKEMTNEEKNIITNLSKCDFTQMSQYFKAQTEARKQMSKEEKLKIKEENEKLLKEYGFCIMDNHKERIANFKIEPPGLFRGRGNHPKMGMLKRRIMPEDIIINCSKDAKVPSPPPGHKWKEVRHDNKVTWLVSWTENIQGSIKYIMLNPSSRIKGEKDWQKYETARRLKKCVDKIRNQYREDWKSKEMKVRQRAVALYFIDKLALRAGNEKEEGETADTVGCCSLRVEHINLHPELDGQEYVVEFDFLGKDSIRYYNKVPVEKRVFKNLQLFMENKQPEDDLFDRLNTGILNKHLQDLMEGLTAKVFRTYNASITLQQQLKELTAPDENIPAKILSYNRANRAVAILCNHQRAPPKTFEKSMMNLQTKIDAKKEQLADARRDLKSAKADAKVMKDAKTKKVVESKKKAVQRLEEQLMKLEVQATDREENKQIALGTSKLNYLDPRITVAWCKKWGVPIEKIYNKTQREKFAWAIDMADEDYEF

IGF-1R = biological target: T6, IGF-1R (Homo sapiens, UniProt P08069); assay: Z`-LYTE kinase profiling, IGF-1R; type: biochemical
T6 construct: purchased Invitrogen/Life Technologies

[5] = tested on: HeLa cervical cancer cell line; assay: MTT antiproliferative assay, HeLa; type: cell-based; conditions: 10 µM, 24 h
Description: as §1

c-Src = biological target: T7, c-Src (Homo sapiens, UniProt P12931); assay: Z`-LYTE kinase profiling, c-Src; type: biochemical
T7 construct: purchased Invitrogen/Life Technologies

VEGFR-2 = biological target: T8, VEGFR-2 (Homo sapiens, UniProt P35968); assay: Z`-LYTE kinase profiling, VEGFR-2; type: biochemical
T8 construct: purchased Invitrogen/Life Technologies

FAK = FAK (Homo sapiens, UniProt Q05397); assay: Z`-LYTE kinase inhibitory assay, FAK

T1 sequence (P17948 27-1338): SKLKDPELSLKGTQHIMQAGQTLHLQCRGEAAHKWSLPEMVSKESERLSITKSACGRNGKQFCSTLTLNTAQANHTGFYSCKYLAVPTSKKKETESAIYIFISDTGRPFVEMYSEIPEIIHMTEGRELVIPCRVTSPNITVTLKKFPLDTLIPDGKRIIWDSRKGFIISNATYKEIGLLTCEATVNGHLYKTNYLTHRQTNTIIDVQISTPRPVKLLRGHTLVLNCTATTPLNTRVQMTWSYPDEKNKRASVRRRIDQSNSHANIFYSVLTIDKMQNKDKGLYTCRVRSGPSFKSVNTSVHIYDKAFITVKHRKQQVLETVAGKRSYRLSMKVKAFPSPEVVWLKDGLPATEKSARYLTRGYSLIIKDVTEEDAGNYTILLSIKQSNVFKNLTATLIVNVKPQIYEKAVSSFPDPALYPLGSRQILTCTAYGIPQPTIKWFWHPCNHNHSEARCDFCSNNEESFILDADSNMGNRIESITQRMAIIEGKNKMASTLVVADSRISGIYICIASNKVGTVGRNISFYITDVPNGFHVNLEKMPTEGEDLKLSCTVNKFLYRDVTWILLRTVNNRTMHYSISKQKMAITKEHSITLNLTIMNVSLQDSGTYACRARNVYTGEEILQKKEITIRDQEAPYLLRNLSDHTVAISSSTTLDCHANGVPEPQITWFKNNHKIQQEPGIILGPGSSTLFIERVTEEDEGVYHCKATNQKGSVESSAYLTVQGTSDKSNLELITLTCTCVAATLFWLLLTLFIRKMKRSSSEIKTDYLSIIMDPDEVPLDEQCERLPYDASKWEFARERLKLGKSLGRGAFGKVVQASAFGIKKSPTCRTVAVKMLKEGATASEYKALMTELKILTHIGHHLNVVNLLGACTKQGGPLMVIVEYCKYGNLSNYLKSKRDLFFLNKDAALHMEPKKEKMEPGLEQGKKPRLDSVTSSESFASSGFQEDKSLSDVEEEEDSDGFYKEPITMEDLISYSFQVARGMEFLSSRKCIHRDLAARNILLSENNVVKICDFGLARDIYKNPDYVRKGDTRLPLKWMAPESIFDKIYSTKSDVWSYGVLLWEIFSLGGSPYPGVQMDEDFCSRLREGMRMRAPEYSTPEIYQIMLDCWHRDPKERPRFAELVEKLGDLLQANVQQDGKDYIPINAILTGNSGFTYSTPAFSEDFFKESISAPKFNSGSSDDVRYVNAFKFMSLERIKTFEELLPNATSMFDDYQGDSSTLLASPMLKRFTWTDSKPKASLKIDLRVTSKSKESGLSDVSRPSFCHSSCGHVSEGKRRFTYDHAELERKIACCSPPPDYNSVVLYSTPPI
T7 sequence (P12931 whole entry): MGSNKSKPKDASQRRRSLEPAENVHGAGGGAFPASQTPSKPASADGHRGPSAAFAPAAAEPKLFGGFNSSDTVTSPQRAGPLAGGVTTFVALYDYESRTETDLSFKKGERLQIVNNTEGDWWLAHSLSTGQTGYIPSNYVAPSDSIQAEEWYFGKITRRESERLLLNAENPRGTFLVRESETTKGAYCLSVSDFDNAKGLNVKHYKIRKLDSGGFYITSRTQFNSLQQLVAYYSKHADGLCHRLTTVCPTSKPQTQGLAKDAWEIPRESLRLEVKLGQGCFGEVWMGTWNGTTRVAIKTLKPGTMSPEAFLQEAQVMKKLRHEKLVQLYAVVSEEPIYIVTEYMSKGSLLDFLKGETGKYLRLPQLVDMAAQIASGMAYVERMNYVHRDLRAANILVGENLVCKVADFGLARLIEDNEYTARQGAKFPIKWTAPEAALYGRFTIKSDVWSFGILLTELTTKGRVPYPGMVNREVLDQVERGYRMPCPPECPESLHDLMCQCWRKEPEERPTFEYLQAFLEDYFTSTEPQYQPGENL
T2 sequence (Q06187 whole entry): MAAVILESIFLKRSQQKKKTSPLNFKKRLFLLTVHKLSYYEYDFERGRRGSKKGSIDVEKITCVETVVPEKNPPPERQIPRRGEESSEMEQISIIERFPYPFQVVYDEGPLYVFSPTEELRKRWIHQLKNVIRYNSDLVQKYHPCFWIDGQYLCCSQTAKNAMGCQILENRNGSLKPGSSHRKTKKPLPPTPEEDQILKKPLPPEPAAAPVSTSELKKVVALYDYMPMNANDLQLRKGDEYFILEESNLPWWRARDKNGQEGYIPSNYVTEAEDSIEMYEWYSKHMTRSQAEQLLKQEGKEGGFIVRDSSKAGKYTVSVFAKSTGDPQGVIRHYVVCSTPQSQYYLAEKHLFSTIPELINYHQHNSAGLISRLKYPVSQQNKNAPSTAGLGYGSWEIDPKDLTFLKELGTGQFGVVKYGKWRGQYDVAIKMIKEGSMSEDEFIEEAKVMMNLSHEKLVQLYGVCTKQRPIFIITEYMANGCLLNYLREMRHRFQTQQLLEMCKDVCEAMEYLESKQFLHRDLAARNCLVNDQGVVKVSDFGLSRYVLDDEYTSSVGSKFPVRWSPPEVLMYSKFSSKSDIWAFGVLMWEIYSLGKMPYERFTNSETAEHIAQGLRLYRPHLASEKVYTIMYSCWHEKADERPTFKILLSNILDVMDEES
T4 sequence (P42685 whole entry): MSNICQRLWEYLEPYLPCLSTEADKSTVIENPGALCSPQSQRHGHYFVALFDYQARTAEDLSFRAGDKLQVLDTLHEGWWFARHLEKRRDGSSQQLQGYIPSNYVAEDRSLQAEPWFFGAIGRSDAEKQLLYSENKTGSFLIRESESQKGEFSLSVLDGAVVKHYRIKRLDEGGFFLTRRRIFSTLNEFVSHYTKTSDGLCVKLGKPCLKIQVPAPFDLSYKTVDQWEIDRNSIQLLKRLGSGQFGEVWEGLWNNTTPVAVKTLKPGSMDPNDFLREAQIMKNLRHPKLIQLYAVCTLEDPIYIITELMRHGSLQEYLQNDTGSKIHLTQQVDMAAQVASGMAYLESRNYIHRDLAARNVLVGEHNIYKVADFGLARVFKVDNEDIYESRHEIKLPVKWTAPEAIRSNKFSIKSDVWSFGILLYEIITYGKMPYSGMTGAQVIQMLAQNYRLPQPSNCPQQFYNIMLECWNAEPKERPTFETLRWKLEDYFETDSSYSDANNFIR
Chain of EGFR (P00533 25-1210): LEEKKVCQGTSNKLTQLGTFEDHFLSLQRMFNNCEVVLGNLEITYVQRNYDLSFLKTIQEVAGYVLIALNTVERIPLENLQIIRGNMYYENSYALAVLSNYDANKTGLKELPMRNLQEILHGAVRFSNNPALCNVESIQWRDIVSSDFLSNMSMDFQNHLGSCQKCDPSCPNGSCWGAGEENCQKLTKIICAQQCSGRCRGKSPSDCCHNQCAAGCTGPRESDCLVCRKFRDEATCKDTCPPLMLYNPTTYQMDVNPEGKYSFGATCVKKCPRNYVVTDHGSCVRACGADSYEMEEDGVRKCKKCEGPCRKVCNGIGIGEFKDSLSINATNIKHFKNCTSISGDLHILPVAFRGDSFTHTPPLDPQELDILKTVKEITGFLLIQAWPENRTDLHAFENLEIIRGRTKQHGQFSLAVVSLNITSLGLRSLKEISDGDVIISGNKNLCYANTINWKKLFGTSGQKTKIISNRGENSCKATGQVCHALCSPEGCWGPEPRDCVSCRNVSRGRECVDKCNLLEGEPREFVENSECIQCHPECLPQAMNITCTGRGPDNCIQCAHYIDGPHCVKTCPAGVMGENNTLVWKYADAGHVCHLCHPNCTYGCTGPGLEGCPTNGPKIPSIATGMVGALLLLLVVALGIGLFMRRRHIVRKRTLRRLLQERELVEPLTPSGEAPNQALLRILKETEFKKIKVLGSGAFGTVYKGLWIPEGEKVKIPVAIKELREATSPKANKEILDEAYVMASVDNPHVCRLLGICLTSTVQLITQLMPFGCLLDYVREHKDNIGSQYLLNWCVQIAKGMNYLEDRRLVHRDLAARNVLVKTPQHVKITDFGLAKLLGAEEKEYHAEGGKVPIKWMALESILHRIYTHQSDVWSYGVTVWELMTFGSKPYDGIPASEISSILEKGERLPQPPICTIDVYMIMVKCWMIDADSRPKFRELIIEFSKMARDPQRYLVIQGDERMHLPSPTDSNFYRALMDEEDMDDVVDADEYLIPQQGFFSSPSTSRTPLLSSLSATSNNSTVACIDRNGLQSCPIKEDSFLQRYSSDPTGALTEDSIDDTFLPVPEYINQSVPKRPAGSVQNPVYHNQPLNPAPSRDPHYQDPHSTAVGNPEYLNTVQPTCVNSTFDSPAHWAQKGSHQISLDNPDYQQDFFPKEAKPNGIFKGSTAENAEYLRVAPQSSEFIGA

COc1cc2nc(-c3ccc(C)cc3)cc(OCCCN3CCN(C)CC3)c2cc1OC [6k, 6,7-dimethoxy-4–(3-(4-methylpiperazin-1-yl)propoxy)-2-(p-tolyl)quinoline]
GI% MDMBA-231 [1]: 8.64%
GI% DLD1 [2]: 18.69%
IC50 [2]: > 100000 nM
IC50 (VEGFR-1): 5040 nM
IC50 (EGFR): 410 ± 12.7 nM
GI% HCT-116 [3]: 22.15%
IC50 [3]: > 100000 nM
IC50 (BTK): 2760 nM
IC50 (HER-2): 1350 nM
melting point: 128 to 130 °C
IC50 (FRK): 3170 nM
GI% MCF-7 [4]: 17.49%
TOP1 inhibitory activity (semiquantitative score relative to 1 µM CPT) (recombinant human TOP1): 0
IC50 (IGF-1R): 2400 nM
GI% Hela [5]: 11.32%
IC50 (c-Src): 6450 nM
IC50 (VEGFR-2): 5960 nM
IC50 (FAK): 158 ± 8.73 nM

COc1cc2nc(-c3ccc(C)cc3)cc(OCCCNC3CCCCC3)c2cc1OC [6l, N-(3-((6,7-dimethoxy-2-(p-tolyl)quinolin-4-yl)oxy)propyl)cyclohexanamine]
GI% MDMBA-231 [1]: 38.36%
GI% DLD1 [2]: 75.34%
IC50 [2]: 6340 ± 520 nM
IC50 (VEGFR-1): 346 nM
IC50 (EGFR): 34.9 ± 3.76 nM
GI% HCT-116 [3]: 69.15%
IC50 [3]: 8110 ± 1040 nM
IC50 (BTK): 1610 nM
IC50 (HER-2): 756 nM
melting point: 126 to 128 °C
IC50 (FRK): 743 nM
GI% MCF-7 [4]: 44.71%
TOP1 inhibitory activity (semiquantitative score relative to 1 µM CPT) (recombinant human TOP1): −/+ (−/+: 0–25% 1 µM CPT)
IC50 (IGF-1R): 1820 nM
GI% Hela [5]: 34.29%
IC50 (c-Src): 1920 nM
IC50 (VEGFR-2): 2400 nM
IC50 (FAK): 26.4 ± 2.81 nM

COc1cc2nc(-c3ccc(C)cc3)cc(OCCCNC3CCN(C)CC3)c2cc1OC [6m, N-(3-((6,7-dimethoxy-2-(p-tolyl)quinolin-4-yl)oxy)propyl)-1-methylpiperidin-4-amine]
GI% MDMBA-231 [1]: 8.16%
GI% DLD1 [2]: 22.16%
IC50 [2]: 54200 ± 2110 nM
IC50 (VEGFR-1): 865 nM
IC50 (EGFR): 154 ± 12.8 nM
GI% HCT-116 [3]: 24.31%
IC50 [3]: 43100 ± 1050 nM
IC50 (BTK): 2460 nM
IC50 (HER-2): 332 nM
melting point: 66 to 68 °C
IC50 (FRK): 2760 nM
GI% MCF-7 [4]: 22.09%
TOP1 inhibitory activity (semiquantitative score relative to 1 µM CPT) (recombinant human TOP1): −/+ (−/+: 0–25% 1 µM CPT)
IC50 (IGF-1R): 2810 nM
GI% Hela [5]: 30.19%
IC50 (c-Src): 980 nM
IC50 (VEGFR-2): 2830 nM
IC50 (FAK): 172 ± 13.7 nM

COc1cc2nc(-c3ccc(C)cc3)cc(OCCCNCC3CCCO3)c2cc1OC (stereo not drawn) [6n, 3-((6,7-dimethoxy-2-(p-tolyl)quinolin-4-yl)oxy)-N-((tetrahydrofuran-2-yl)methyl)propa-n-1-amine]
GI% MDMBA-231 [1]: 14.39%
GI% DLD1 [2]: 81.34%
IC50 [2]: 6110 ± 1800 nM
IC50 (VEGFR-1): 556 nM
IC50 (EGFR): 41.8 ± 2.34 nM
GI% HCT-116 [3]: 64.26%
IC50 [3]: 8690 ± 940 nM
IC50 (BTK): 819 nM
IC50 (HER-2): 1390 nM
melting point: 60 to 62 °C
IC50 (FRK): 2520 nM
GI% MCF-7 [4]: 58.15%
TOP1 inhibitory activity (semiquantitative score relative to 1 µM CPT) (recombinant human TOP1): 0
IC50 (IGF-1R): 2810 nM
GI% Hela [5]: 71.12%
IC50 (c-Src): 82.7 nM
IC50 (VEGFR-2): 1190 nM
IC50 (FAK): 44.4 ± 2.94 nM

COc1cc2nc(-c3ccc(C)cc3)cc(OCCCn3ccnc3)c2cc1OC [6o, 4-(3-(1H-imidazol-1-yl)propoxy)-6,7-dimethoxy-2-(p-tolyl)quinoline]
GI% MDMBA-231 [1]: 8.64%
GI% DLD1 [2]: 12.36%
IC50 [2]: > 100000 nM
IC50 (VEGFR-1): 511 nM
IC50 (EGFR): 256 ± 6.94 nM
GI% HCT-116 [3]: 1.08%
IC50 [3]: > 100000 nM
IC50 (BTK): 3830 nM
IC50 (HER-2): 1380 nM
melting point: 203 to 205 °C
IC50 (FRK): 786 nM
GI% MCF-7 [4]: 5.36%
TOP1 inhibitory activity (semiquantitative score relative to 1 µM CPT) (recombinant human TOP1): 0
IC50 (IGF-1R): 408 nM
GI% Hela [5]: 9.16%
IC50 (c-Src): 3490 nM
IC50 (VEGFR-2): 3620 nM
IC50 (FAK): 205 ± 8.04 nM

COc1cc2nc(-c3ccc(-c4ccco4)cc3)cc(OCCCN3CCN(C)CC3)c2cc1OC [8a, 2-(4-(furan-2-yl)phenyl)-6,7-dimethoxy-4-(3-(4-methylpiperazin-1-yl)propoxy)quinoline]
GI% MDMBA-231 [1]: 4.40%
GI% DLD1 [2]: 5.15%
IC50 [2]: > 100000 nM
IC50 (VEGFR-1): 648 nM
IC50 (EGFR): 349 ± 14 nM
GI% HCT-116 [3]: 1.02%
IC50 [3]: > 100000 nM
IC50 (BTK): 5600 nM
IC50 (HER-2): 989 nM
melting point: 135 to 137 °C
IC50 (FRK): 846 nM
GI% MCF-7 [4]: 7.22%
TOP1 inhibitory activity (semiquantitative score relative to 1 µM CPT) (recombinant human TOP1): 0
IC50 (IGF-1R): 1060 nM
GI% Hela [5]: 11.78%
IC50 (c-Src): 4540 nM
IC50 (VEGFR-2): 6370 nM
IC50 (FAK): 198 ± 12.3 nM

COc1cc2nc(-c3ccc(-c4cccs4)cc3)cc(OCCCN3CCN(C)CC3)c2cc1OC [8b, 6,7-dimethoxy-4–(3-(4-methylpiperazin-1-yl)propoxy)-2–(4-(thiophen-2-yl)phenyl)quinol-ine]
GI% MDMBA-231 [1]: 36.87%
GI% DLD1 [2]: 74.25%
IC50 [2]: 7340 ± 1220 nM
IC50 (VEGFR-1): 6960 nM
IC50 (EGFR): 35.5 ± 1.5 nM
GI% HCT-116 [3]: 52.10%
IC50 [3]: 9840 ± 680 nM
IC50 (BTK): 2920 nM
IC50 (HER-2): 1070 nM
melting point: 155 to 157 °C
IC50 (FRK): 3920 nM
GI% MCF-7 [4]: 74.90%
TOP1 inhibitory activity (semiquantitative score relative to 1 µM CPT) (recombinant human TOP1): 0
IC50 (IGF-1R): 3900 nM
GI% Hela [5]: 50.81%
IC50 (c-Src): 7200 nM
IC50 (VEGFR-2): 8370 nM
IC50 (FAK): 29.8 ± 2.37 nM
